# Assay results reported in ChEMBL document CHEMBL5291721, “A preclinical secondary pharmacology resource illuminates target-adverse drug reaction associations of marketed drugs” (Nat Commun, 2023).
# Where a SMILES comes first, the peptide text is derived from it.
# Key:
# [1] = biological target: T1, Cholecystokinin receptor type A (Homo sapiens, UniProt P32238)
# T1 sequence (P32238 whole entry): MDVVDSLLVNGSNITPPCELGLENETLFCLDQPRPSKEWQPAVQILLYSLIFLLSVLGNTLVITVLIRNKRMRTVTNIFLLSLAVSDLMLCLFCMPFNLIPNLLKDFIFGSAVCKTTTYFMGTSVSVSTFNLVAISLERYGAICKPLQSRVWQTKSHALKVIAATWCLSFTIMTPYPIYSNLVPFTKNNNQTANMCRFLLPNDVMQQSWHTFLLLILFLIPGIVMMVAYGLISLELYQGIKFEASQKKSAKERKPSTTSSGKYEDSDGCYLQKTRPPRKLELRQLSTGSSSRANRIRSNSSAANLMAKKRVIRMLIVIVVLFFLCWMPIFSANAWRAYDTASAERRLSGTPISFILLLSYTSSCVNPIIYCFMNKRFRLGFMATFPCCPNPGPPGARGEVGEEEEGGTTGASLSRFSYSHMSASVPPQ
# [2] = biological target: T2, Alpha-2B adrenergic receptor (Homo sapiens, UniProt P18089)
# T2 sequence (P18089 whole entry): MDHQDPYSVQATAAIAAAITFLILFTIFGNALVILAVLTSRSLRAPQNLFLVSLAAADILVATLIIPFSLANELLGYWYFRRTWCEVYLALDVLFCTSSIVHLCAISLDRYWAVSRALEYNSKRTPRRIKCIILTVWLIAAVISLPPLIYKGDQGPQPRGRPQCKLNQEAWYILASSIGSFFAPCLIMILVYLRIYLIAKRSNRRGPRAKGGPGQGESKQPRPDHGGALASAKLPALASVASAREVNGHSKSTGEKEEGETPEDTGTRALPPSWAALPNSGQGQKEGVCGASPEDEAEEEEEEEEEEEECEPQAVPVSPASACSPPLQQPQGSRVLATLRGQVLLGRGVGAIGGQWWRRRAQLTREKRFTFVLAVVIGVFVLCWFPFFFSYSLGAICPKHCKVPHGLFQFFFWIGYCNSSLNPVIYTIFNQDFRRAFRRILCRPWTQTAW
# [3] = biological target: T3, Alpha-2C adrenergic receptor (Homo sapiens, UniProt P18825); type: functional
# T3 sequence (P18825 whole entry): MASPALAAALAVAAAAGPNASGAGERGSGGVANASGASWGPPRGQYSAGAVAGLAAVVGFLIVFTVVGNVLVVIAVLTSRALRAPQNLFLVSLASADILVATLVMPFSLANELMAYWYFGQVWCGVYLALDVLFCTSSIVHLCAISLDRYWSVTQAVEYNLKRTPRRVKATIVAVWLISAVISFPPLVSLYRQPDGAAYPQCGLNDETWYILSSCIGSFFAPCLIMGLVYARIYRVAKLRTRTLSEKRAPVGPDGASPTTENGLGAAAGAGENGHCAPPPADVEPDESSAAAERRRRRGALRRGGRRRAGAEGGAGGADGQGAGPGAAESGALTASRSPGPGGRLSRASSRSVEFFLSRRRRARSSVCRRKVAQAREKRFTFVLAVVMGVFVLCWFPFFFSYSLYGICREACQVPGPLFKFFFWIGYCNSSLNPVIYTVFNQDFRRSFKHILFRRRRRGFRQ
# [4] = biological target: T4, Neuropeptide Y receptor type 1 (Homo sapiens, UniProt P25929)
# T4 sequence (P25929 whole entry): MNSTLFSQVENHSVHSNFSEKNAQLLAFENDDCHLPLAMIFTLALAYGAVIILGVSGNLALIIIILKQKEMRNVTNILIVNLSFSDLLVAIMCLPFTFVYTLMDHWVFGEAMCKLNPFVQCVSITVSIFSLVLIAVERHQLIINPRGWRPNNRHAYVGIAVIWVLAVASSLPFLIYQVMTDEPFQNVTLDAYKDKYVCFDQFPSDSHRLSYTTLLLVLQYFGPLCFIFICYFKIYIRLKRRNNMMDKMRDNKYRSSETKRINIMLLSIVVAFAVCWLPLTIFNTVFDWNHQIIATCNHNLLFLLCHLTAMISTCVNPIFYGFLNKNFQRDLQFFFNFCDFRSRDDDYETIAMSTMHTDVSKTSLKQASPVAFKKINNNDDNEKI
# [5] = biological target: Gamma-aminobutyric acid receptor subunit alpha-1 (Rattus norvegicus, UniProt P62813)
# Chain of Gamma-aminobutyric acid receptor subunit alpha-1 (P62813 whole entry): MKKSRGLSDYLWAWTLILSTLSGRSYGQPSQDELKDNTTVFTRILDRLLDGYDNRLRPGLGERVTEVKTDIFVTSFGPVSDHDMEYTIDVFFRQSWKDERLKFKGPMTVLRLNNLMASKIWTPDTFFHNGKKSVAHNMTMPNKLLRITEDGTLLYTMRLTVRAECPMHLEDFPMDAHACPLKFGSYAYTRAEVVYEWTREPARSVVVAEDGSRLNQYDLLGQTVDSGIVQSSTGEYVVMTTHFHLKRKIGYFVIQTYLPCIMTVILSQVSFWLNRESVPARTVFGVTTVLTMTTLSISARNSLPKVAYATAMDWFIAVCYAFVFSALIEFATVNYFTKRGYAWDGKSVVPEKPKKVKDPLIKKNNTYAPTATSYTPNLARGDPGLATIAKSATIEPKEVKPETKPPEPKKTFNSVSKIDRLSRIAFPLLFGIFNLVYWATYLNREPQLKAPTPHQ
# Adenosine receptor A1 = biological target: T5, Adenosine receptor A1 (Homo sapiens, UniProt P30542)
# T5 sequence (P30542 whole entry): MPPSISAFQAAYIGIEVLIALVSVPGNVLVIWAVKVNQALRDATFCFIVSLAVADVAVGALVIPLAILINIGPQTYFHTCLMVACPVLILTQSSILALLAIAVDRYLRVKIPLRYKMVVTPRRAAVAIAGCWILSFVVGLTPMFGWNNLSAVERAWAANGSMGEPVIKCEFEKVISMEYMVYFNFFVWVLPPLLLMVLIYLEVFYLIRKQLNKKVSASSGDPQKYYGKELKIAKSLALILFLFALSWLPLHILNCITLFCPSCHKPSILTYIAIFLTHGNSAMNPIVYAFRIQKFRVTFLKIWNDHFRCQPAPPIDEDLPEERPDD
# [6] = biological target: T6, Type-1 angiotensin II receptor (Homo sapiens, UniProt P30556)
# T6 sequence (P30556 whole entry): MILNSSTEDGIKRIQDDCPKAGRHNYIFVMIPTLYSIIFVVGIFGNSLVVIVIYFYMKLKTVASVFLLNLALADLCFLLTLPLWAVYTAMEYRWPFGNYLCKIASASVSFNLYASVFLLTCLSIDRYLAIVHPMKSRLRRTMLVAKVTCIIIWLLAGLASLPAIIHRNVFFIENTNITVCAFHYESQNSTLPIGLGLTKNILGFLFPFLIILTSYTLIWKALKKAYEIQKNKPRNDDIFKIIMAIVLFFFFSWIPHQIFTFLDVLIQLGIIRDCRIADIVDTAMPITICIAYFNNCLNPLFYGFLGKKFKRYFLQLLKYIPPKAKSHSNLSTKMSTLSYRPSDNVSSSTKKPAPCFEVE
# Adenosine receptor A2a = Adenosine receptor A2a (Homo sapiens, UniProt P29274)
# Chain of Adenosine receptor A2a (P29274 whole entry): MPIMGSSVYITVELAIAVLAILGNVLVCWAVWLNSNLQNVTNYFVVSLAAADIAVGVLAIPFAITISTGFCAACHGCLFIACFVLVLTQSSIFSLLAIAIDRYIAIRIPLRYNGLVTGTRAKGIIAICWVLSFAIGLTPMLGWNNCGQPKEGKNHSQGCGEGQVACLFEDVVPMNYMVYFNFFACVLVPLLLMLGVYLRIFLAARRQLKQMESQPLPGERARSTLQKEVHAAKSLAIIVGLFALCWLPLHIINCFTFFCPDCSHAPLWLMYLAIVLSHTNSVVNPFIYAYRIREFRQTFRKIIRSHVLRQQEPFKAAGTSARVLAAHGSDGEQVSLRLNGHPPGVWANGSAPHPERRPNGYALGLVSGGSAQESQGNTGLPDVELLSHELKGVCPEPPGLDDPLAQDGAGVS
# Adenosine receptor A3 = biological target: T7, Adenosine receptor A3 (Homo sapiens, UniProt P0DMS8)
# T7 sequence (P0DMS8 whole entry): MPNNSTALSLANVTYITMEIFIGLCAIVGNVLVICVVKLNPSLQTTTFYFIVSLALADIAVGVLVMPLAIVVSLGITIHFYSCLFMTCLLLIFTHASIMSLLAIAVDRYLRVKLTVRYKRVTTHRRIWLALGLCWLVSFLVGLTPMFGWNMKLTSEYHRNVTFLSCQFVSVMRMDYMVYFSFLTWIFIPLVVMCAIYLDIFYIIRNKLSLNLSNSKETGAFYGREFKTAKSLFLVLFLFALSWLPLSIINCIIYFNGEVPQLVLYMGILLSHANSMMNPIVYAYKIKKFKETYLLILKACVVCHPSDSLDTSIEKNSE
# Also: assay procedure not described here.
Molecule,AC50 [1] [µM],AC50 [2] [µM],AC50 [3] [µM],AC50 [4] [µM],AC50 [5] [µM],AC50 (Adenosine receptor A1) [µM],AC50 [6] [µM],AC50 (Adenosine receptor A2a) [µM],AC50 (Adenosine receptor A3) [µM]
O=C(O)c1ccc2nc(-c3cc(Cl)cc(Cl)c3)oc2c1,> 30,> 30,> 30,> 30,> 30,> 30,> 30,> 30,> 30
NS(=O)(=O)c1ccc(N2CCCCS2(=O)=O)cc1,> 30,> 30,> 30,> 30,> 30,> 30,> 30,> 30,> 30
OCC(O)COc1ccc(Cl)cc1 (stereo not drawn),> 10,> 10,> 10,> 10,> 10,> 10,> 10,> 10,> 10
O=C(O[C@H]1C[N+]2(CCCOc3ccccc3)CCC1CC2)C(O)(c1cccs1)c1cccs1 [ACLIDINIUM BROMIDE],> 30,> 10,2.5,> 30,> 10,> 30,> 30,> 30,> 30
C[C@H](N)C(=O)N[C@@H](CCC(N)=O)C(=O)O [ALANYL GLUTAMINE] (H-Ala-Gln-OH),> 30,> 30,> 30,> 30,> 30,> 30,> 30,> 30,> 30
COc1cc(N)cn[n+]1-c1ccccc1 [AMEZINIUM METILSULFATE],> 30,> 30,> 30,> 30,> 30,> 30,> 30,> 30,> 30
O=C(O)CCCC[C@@H]1SC[C@@H]2NC(=O)N[C@@H]21 [BIOTIN],> 10,> 10,> 10,> 10,–,> 10,> 10,> 10,> 10
CC(=O)OCC1=C(C(=O)O)N2C(=O)[C@@H](NC(=O)Cc3cccs3)[C@H]2SC1 [CEPHALOTHIN],> 30,> 30,> 30,> 30,–,> 30,> 30,> 30,> 30
CC1=C(C(=O)O)N2C(=O)[C@@H](NC(=O)[C@H](N)C3=CCC=CC3)[C@H]2SC1 [CEPHRADINE],> 30,> 30,> 30,> 30,–,> 30,> 30,> 30,27
CCCCCCOC(=O)NC(=N)c1ccc(NCc2nc3cc(C(=O)N(CCC(=O)OCC)c4ccccn4)ccc3n2C)cc1 [DABIGATRAN ETEXILATE],> 30,> 30,> 30,> 30,–,> 30,7.7,> 30,11
CCN1C(=O)NC(c2ccccc2)C1=O (stereo not drawn) [ETHOTOIN],> 30,> 30,> 30,> 30,–,> 30,> 30,> 30,12
CN1C(=O)CN=C(c2ccccc2F)c2cc([N+](=O)[O-])ccc21 [FLUNITRAZEPAM],–,> 10,> 10,> 30,> 10,> 30,> 30,> 30,> 30
CN1CCC(=C2c3ccccc3CC(=O)c3sccc32)CC1 [KETOTIFEN],> 10,–,6.45,> 10,> 10,> 10,> 10,> 10,> 10
O=C(O)c1nn(Cc2ccc(Cl)cc2Cl)c2ccccc12 [LONIDAMINE],> 30,> 30,> 30,> 30,–,> 30,> 30,> 30,> 30
CC(C)(C)NCC(O)COc1cccc2c1CC(O)C(O)C2 (stereo not drawn) [NADOLOL],> 10,–,> 10,> 10,> 10,> 10,> 10,> 10,> 10
Nc1ccc(S(=O)(=O)Nc2ncccn2)cc1 [SULFADIAZINE],> 10,–,> 10,> 10,> 10,> 10,> 10,> 10,> 10
Cc1cccc(Nc2ccncc2S(=O)(=O)NC(=O)NC(C)C)c1 [TORSEMIDE],> 30,–,> 10,> 30,> 10,> 30,> 10,> 30,> 30
CN(C)CCOCC(=O)NC12CC3CC(CC(C3)C1)C2 [TROMANTADINE],> 30,> 30,> 30,> 30,–,> 30,> 30,> 30,> 30
TEPRENONE,> 30,> 10,> 10,–,> 10,> 30,8.72,> 30,> 30
